From ChEMBL document CHEMBL1201862, “PubChem BioAssay data set” (2004)
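Exposure lasted 48 hours, with cells grown in 96-well plates and compounds tested at five concentrations. GI50: concentration for 50% inhibition of growth.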 Active and inactive are the calls of the source. Cut-off read from the data, not from the text of the source: active = GI50 up to about 1.1 µM and inactive = higher.

Legend:
Experiment in all cases: DTP human tumour cell line panel, 48 h
SR = tested on: SR
LOX IMVI = tested on: LOX IMVI
TK-10 = tested on: TK-10
IGROV-1 = tested on: IGROV-1
U-251 = tested on: U-251
SNB-75 = tested on: SNB-75
KM12 = tested on: KM12
HCT-15 = tested on: HCT-15
OVCAR-8 = tested on: OVCAR-8
MDA-MB-435 = tested on: MDA-MB-435
SF-539 = tested on: SF-539
MCF7 = tested on: MCF7
CCRF-CEM = tested on: CCRF-CEM
OVCAR-3 = tested on: OVCAR-3
A549 = tested on: A549
NCI-H226 = tested on: NCI-H226
NCI/ADR-RES = tested on: NCI/ADR-RES
NCI-H23 = tested on: NCI-H23
HL-60 = tested on: HL-60
Malme-3M = tested on: Malme-3M

| SMILES | GI50 (SR) | GI50 (LOX IMVI) | GI50 (TK-10) | GI50 (IGROV-1) | GI50 (U-251) | GI50 (SNB-75) | GI50 (KM12) | GI50 (HCT-15) [µM] | GI50 (OVCAR-8) | GI50 (MDA-MB-435) | GI50 (SF-539) | GI50 (MCF7) | GI50 (CCRF-CEM) | GI50 (OVCAR-3) | GI50 (A549) | GI50 (NCI-H226) | GI50 (NCI/ADR-RES) | GI50 (NCI-H23) | GI50 (HL-60) | GI50 (Malme-3M) |
| --- | --- | --- | --- | --- | --- | --- | --- | --- | --- | --- | --- | --- | --- | --- | --- | --- | --- | --- | --- | --- |
| O=C(CC(C(=O)c1cccs1)c1ccccc1)c1ccccc1O (centres undefined) | 9.27 µM (inactive) | 12.4 µM (inactive) | > 41.1 µM (inactive) | 4.98 µM (inactive) | 9.93 µM (inactive) | > 20.6 µM (inactive) | 20.9 µM (inactive) | 8 | 9.62 µM (inactive) | 3.1 µM (inactive) | 34.1 µM (inactive) | 9.86 µM (inactive) | 2.55 µM (inactive) | 83 µM (inactive) | 13.1 µM (inactive) | > 57.7 µM (inactive) | 6.01 µM (inactive) | > 42.6 µM (inactive) |  |  |
| CC12CC(OC(=O)[C@]1(C)O)[C@@H]([C@]1(O)CC[C@H]3[C@@H]4C[C@H]5O[C@]56[C@@H](O)C=CC(=O)[C@]6(C)[C@H]4CC[C@@]31C)C2 (some centres undefined) |  | 4.42 µM (inactive) | 7.36 µM (inactive) | 17.3 µM (inactive) | 13.8 µM (inactive) |  | 14.4 µM (inactive) | 7.33 | 3.37 µM (inactive) | 7.4 µM (inactive) | 2.78 µM (inactive) | 3.08 µM (inactive) | 1.33 µM (inactive) | 2.59 µM (inactive) | 30.5 µM (inactive) | 40.7 µM (inactive) | 5.35 µM (inactive) | 4.08 µM (inactive) | < 0.01 µM (active) |  |
| Nc1nc(-c2cccc([N+](=O)[O-])c2)cc(-c2cc(-c3cccc([N+](=O)[O-])c3)nc(N)n2)n1 | > 100 µM (inactive) | > 100 µM (inactive) | > 100 µM (inactive) | > 100 µM (inactive) | > 100 µM (inactive) |  | > 100 µM (inactive) | > 100 | > 100 µM (inactive) | > 100 µM (inactive) | > 100 µM (inactive) | > 100 µM (inactive) |  | > 100 µM (inactive) | > 100 µM (inactive) | > 100 µM (inactive) | > 100 µM (inactive) | > 100 µM (inactive) | > 100 µM (inactive) | > 100 µM (inactive) |
| NCCC(=O)NC(Cc1c[nH]cn1)C(=O)O (centres undefined) |  | > 100 µM (inactive) | > 100 µM (inactive) | > 100 µM (inactive) | > 100 µM (inactive) | > 100 µM (inactive) | > 100 µM (inactive) | > 100 | > 100 µM (inactive) | > 100 µM (inactive) | > 100 µM (inactive) | > 100 µM (inactive) | > 100 µM (inactive) | > 100 µM (inactive) | > 100 µM (inactive) | > 100 µM (inactive) | > 100 µM (inactive) | > 100 µM (inactive) | > 100 µM (inactive) | > 100 µM (inactive) |
| CNNC1=NS(=O)(=O)c2cc(C(=O)OC)c(Cl)cc2S1 |  | > 10 µM (inactive) | > 10 µM (inactive) | > 10 µM (inactive) | > 10 µM (inactive) | > 10 µM (inactive) | > 10 µM (inactive) | > 10 | > 10 µM (inactive) | > 10 µM (inactive) | > 10 µM (inactive) | > 10 µM (inactive) | > 10 µM (inactive) | > 10 µM (inactive) | > 10 µM (inactive) | > 10 µM (inactive) | > 10 µM (inactive) | > 10 µM (inactive) | > 10 µM (inactive) | > 10 µM (inactive) |
| Cc1cc(-n2nnc(C(=O)O)c2-c2ccccc2)c2ccc(Cl)cc2n1 |  | > 100 µM (inactive) | > 100 µM (inactive) | > 100 µM (inactive) | > 100 µM (inactive) | > 100 µM (inactive) | > 100 µM (inactive) | > 100 | > 100 µM (inactive) | > 100 µM (inactive) | > 100 µM (inactive) | > 100 µM (inactive) | > 100 µM (inactive) | > 100 µM (inactive) | > 100 µM (inactive) | > 100 µM (inactive) | > 100 µM (inactive) | > 100 µM (inactive) | > 100 µM (inactive) | > 100 µM (inactive) |
| CCC1(C)C=Cc2c(cc(O)c3c(=O)c4ccccc4n(C)c23)O1 (centres undefined) |  | > 10 µM (inactive) | > 10 µM (inactive) | > 10 µM (inactive) | > 10 µM (inactive) | > 10 µM (inactive) | > 10 µM (inactive) | > 10 | > 10 µM (inactive) | > 10 µM (inactive) | > 10 µM (inactive) | > 10 µM (inactive) | > 10 µM (inactive) | > 10 µM (inactive) | > 10 µM (inactive) | > 10 µM (inactive) | > 10 µM (inactive) | > 10 µM (inactive) |  | > 10 µM (inactive) |
| N#CC1=C2SCCN2C(=O)C(C#N)C12CCCCC2 (centres undefined) | > 100 µM (inactive) | > 100 µM (inactive) | > 100 µM (inactive) | > 100 µM (inactive) | > 100 µM (inactive) | > 100 µM (inactive) | > 100 µM (inactive) | > 100 | > 100 µM (inactive) | > 100 µM (inactive) | > 100 µM (inactive) | > 100 µM (inactive) | > 100 µM (inactive) | > 100 µM (inactive) | > 100 µM (inactive) | > 100 µM (inactive) | > 100 µM (inactive) | > 100 µM (inactive) |  | > 100 µM (inactive) |
| O=C(O)CSc1ccc(N=C=S)cc1 | 3.43 µM (inactive) | 48.6 µM (inactive) | 75 µM (inactive) | > 100 µM (inactive) | 72.3 µM (inactive) | > 100 µM (inactive) | > 100 µM (inactive) | 62.8 | 71.4 µM (inactive) | 81.8 µM (inactive) | 30.5 µM (inactive) | 56 µM (inactive) | 12.6 µM (inactive) | 94 µM (inactive) | > 100 µM (inactive) | 54.5 µM (inactive) | > 100 µM (inactive) | 78.9 µM (inactive) |  | 27.4 µM (inactive) |
| CC(=O)c1ccc2c3c1[C@@H]1O[C@@H]1c1cccc(c1-3)[C@@H]1O[C@H]21 | > 100 µM (inactive) | 2.07 µM (inactive) | 20.7 µM (inactive) | 0.782 µM (active) | 6.62 µM (inactive) | 13.5 µM (inactive) | 7.52 µM (inactive) | 3.44 | 3.94 µM (inactive) | 6.92 µM (inactive) |  | 4 µM (inactive) | 2.86 µM (inactive) | 13.5 µM (inactive) | 14.5 µM (inactive) | 37.8 µM (inactive) | 13.7 µM (inactive) | 7 µM (inactive) | 9.91 µM (inactive) | 7.4 µM (inactive) |
| COC(=O)C1CC(C=[N+](C)C)=C(SC)N1 (centres undefined) | > 100 µM (inactive) |  | > 100 µM (inactive) | > 100 µM (inactive) | > 100 µM (inactive) | > 100 µM (inactive) | > 100 µM (inactive) | > 100 | > 100 µM (inactive) | > 100 µM (inactive) |  | > 100 µM (inactive) |  | > 100 µM (inactive) |  |  | > 100 µM (inactive) | > 100 µM (inactive) |  | > 100 µM (inactive) |
| COc1ccc(Cc2nc3cc([N+](=O)[O-])ccc3n2C[C@@H]2CCCN3CCCCC23)cc1 (some centres undefined) |  | 16.7 µM (inactive) | 25.2 µM (inactive) | 17.7 µM (inactive) | 20.9 µM (inactive) | 40.7 µM (inactive) | 16.3 µM (inactive) | 23.4 | 45.7 µM (inactive) | 18.6 µM (inactive) |  | 27.2 µM (inactive) | 11.2 µM (inactive) | 20.9 µM (inactive) | 15.8 µM (inactive) | 31.6 µM (inactive) | 25.2 µM (inactive) | 29.8 µM (inactive) | 4.01 µM (inactive) | 16.7 µM (inactive) |
| Nc1c(-c2nc3ccccc3o2)sc(=S)n1-c1ccc(Cl)cc1 | 51.5 µM (inactive) |  | 27.9 µM (inactive) | 17.7 µM (inactive) | 15.6 µM (inactive) |  | 22.4 µM (inactive) | 26.1 | 12.1 µM (inactive) | 17.3 µM (inactive) | 11.6 µM (inactive) | 5.07 µM (inactive) | > 100 µM (inactive) | 15.9 µM (inactive) | 13.2 µM (inactive) | 13.9 µM (inactive) | 19.3 µM (inactive) | 13.9 µM (inactive) | > 100 µM (inactive) | 19.1 µM (inactive) |
| COC(=O)C(/C(=N\O)C(=O)Nc1cccc(Cl)c1C)c1cnc2ccccc2n1 (centres undefined) | > 100 µM (inactive) | > 100 µM (inactive) | > 100 µM (inactive) | > 100 µM (inactive) | > 100 µM (inactive) | > 100 µM (inactive) | > 100 µM (inactive) | > 100 | > 100 µM (inactive) | > 100 µM (inactive) | > 100 µM (inactive) | > 100 µM (inactive) | > 100 µM (inactive) | > 100 µM (inactive) | > 100 µM (inactive) | > 100 µM (inactive) | > 100 µM (inactive) | > 100 µM (inactive) |  | > 100 µM (inactive) |
| COC(CNC(=O)C(C)NC(=O)C(C)NC(=O)c1ccccc1)OC (centres undefined) | > 100 µM (inactive) |  | > 100 µM (inactive) | > 100 µM (inactive) | > 100 µM (inactive) | > 100 µM (inactive) | > 100 µM (inactive) | > 100 | > 100 µM (inactive) | > 100 µM (inactive) | > 100 µM (inactive) | > 100 µM (inactive) | > 100 µM (inactive) |  | > 100 µM (inactive) | > 100 µM (inactive) | > 100 µM (inactive) | > 100 µM (inactive) |  | > 100 µM (inactive) |
| COc1ccc(C(=O)NCCC2CN(S(=O)(=O)C(F)(F)F)c3ccccc32)c(OC)c1 (centres undefined) | > 100 µM (inactive) |  |  | 61.4 µM (inactive) | 30.3 µM (inactive) |  | 21.3 µM (inactive) | 57.4 |  | 30.1 µM (inactive) |  | 52.1 µM (inactive) | 17.2 µM (inactive) | 51.4 µM (inactive) | 52.1 µM (inactive) |  | 23.1 µM (inactive) | 32.8 µM (inactive) |  | 7.06 µM (inactive) |
